From patent US20260262643A1, “HERBICIDAL BENZOXAZINES” (FMC CORPORATION, priority 2022, published 2026)

What was measured:
rice = assay: Test D flooded paddy test; format: in vivo, Oryza sativa; conditions: 250 g ai/ha, applied to paddy water, visual rating after 13 to 14 days, scale 0 to 100 (0 no effect, 100 complete control)
Method in brief: (§1)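 Post-flood water application at the 2-leaf stage; 3 cm flood depth kept constant; visual control rating 0–100 after 13–14 days greenhouse growth.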

ragweed [1] = assay: Test C preemergence; format: in vivo, Ambrosia artemisiifolia; conditions: 0 to 100 scale (0 no effect, 100 complete control); for Ragweed plant response rating: preemergence
Method in brief: (§2)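 Pre: seeds in loam/sand, directed soil spray. Post: 1–2 leaf plants, 2–10 cm. Cmpd in non-phytotoxic solvent + surfactant. Greenhouse 10 d; visual rating vs untreated, 0 = none, 100 = complete control.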

corn [2] = assay: Test C preemergence; format: in vivo, Zea mays; conditions: 0 to 100 scale (0 no effect, 100 complete control); for Corn plant response rating: preemergence
Method in brief: as §2

ragweed [3] = assay: Test C postemergence; format: in vivo, Ambrosia artemisiifolia; conditions: 10 days
Method in brief: as §2

pigweed, palmer [4] = assay: Test C preemergence; format: in vivo, Amaranthus palmeri; conditions: 0 to 100 scale (0 no effect, 100 complete control); for Pigweed, Palmer plant response rating: preemergence
Method in brief: as §2

oat, wild [5] = assay: Test C postemergence; format: in vivo, Avena fatua; conditions: 10 days
Method in brief: as §2

wheat [6] = assay: Test C preemergence; format: in vivo, Triticum aestivum; conditions: 0 to 100 scale (0 no effect, 100 complete control); for Wheat plant response rating: preemergence
Method in brief: as §2

blackgrass [7] = assay: Test C postemergence; format: in vivo, Alopecurus myosuroides; conditions: 10 days
Method in brief: as §2

goosegrass [8] = assay: Test C postemergence; format: in vivo, Eleusine indica; conditions: 10 days
Description: (§3) Seeds of plant species selected from barnyardgrass (Echinochloa crusgalli), blackgrass (Alopecurus myosuroides), corn (Zea mays), foxtail, giant (giant foxtail, Setaria faberi), green foxtail (Setaria viridis), goosegrass (Eleusine indica), kochia (Bassia scoparia), oat, wild (wild oat, Avena fatua), pigweed, palmer (palmer amaranth, palmer pigweed, Amaranthus palmeri), Pigweed, Redroot (redroot pigweed, Amaranthus retroflexus), ragweed (common ragweed, Ambrosia artemisiifolia), ryegrass, Italian ([…] ryegrass, Lolium multiflorum), soybean (Glycine max), and wheat (Triticum aestivum) were planted into a blend of loam soil and sand and treated preemergence with a directed soil spray using test chemicals formulated in a non-phytotoxic solvent mixture which included a surfactant. At the same time, plants selected from these crops and weed species and also galium (catchweed bedstraw, Galium aparine) and horseweed (Erigeron canadensis) were planted in pots containing the same blend of loam soil and sand and treated with postemergence applications of test chemicals formulated in the same manner. Plants ranged in height from 2 to 10 cm and were in the one- to two-leaf stage for the postemergence treatment. Treated plants and untreated controls were maintained in a greenhouse for 10 days, after which time all treated plants were compared to untreated controls and visually evaluated for injury. Plant response ratings, summarized in Table C, are based on a 0 to 100 scale where 0 is no effect and 100 is complete control. A dash (-) response means no test result.

kochia [9] = assay: Test C preemergence; format: in vivo, Bassia scoparia; conditions: 0 to 100 scale (0 no effect, 100 complete control); for Kochia plant response rating: preemergence
Method in brief: as §2

pigweed, palmer [10] = assay: Test C postemergence; format: in vivo, Amaranthus palmeri; conditions: 10 days
Method in brief: as §2

ryegrass, Italian [11] = assay: Test C postemergence; format: in vivo, Lolium multiflorum; conditions: 10 days
Method in brief: as §2

kochia [12] = assay: Test C postemergence; format: in vivo, Bassia scoparia; conditions: 10 days
Method in brief: as §2

blackgrass [13] = assay: Test C preemergence; format: in vivo, Alopecurus myosuroides; conditions: 0 to 100 scale (0 no effect, 100 complete control); for Blackgrass plant response rating: preemergence
Method in brief: as §2

horseweed = assay: Test C postemergence; format: in vivo, Erigeron canadensis; conditions: 10 days
Method in brief: as §2

goosegrass [14] = assay: Test C preemergence; format: in vivo, Eleusine indica; conditions: 0 to 100 scale (0 no effect, 100 complete control); for Goosegrass plant response rating: preemergence
Description: as §3

foxtail, giant [15] = assay: Test C postemergence; format: in vivo, Setaria faberi; conditions: 10 days
Method in brief: as §2

soybean [16] = assay: Test C postemergence; format: in vivo, Glycine max; conditions: 10 days
Method in brief: as §2

ryegrass, Italian [17] = assay: Test C preemergence; format: in vivo, Lolium multiflorum; conditions: 0 to 100 scale (0 no effect, 100 complete control); for Ryegrass, Italian plant response rating: preemergence
Method in brief: as §2

wheat [18] = assay: Test C postemergence; format: in vivo, Triticum aestivum; conditions: 10 days
Method in brief: as §2

ducksalad = assay: Test D flooded paddy test; format: in vivo, Heteranthera limosa; conditions: 250 g ai/ha, applied to paddy water, visual rating after 13 to 14 days, scale 0 to 100 (0 no effect, 100 complete control)
Method in brief: as §1

sedge, umbrella = assay: Test D flooded paddy test; format: in vivo, Cyperus difformis; conditions: 250 g ai/ha, applied to paddy water, visual rating after 13 to 14 days, scale 0 to 100 (0 no effect, 100 complete control)
Method in brief: as §1

oat, wild [19] = assay: Test C preemergence; format: in vivo, Avena fatua; conditions: 0 to 100 scale (0 no effect, 100 complete control); for Oat, Wild plant response rating: preemergence
Method in brief: as §2

corn [20] = assay: Test C postemergence; format: in vivo, Zea mays; conditions: 10 days
Method in brief: as §2

barnyardgrass = assay: Test D flooded paddy test; format: in vivo, Echinochloa crus-galli; conditions: 250 g ai/ha, applied to paddy water, visual rating after 13 to 14 days, scale 0 to 100 (0 no effect, 100 complete control)
Method in brief: as §1

galium = assay: Test C postemergence; format: in vivo, Galium aparine; conditions: 10 days
Method in brief: as §2

foxtail, giant [21] = assay: Test C preemergence; format: in vivo, Setaria faberi; conditions: 0 to 100 scale (0 no effect, 100 complete control); for Foxtail, Giant plant response rating: preemergence
Method in brief: as §2

soybean [22] = assay: Test C preemergence; format: in vivo, Glycine max; conditions: 0 to 100 scale (0 no effect, 100 complete control); for Soybean plant response rating: preemergence
Method in brief: as §2

[23] = Preemergence, 500 g ai/ha, visual rating after 10 days
[24] = 125 g ai/ha, postemergence, 0 to 100 scale, 0 no effect, 100 complete control
[25] = Postemergence, 500 g ai/ha, visual 0 to 100 scale (0 no effect, 100 complete control)
[26] = 500 g ai/ha, postemergence, 0 to 100 scale (0 no effect, 100 complete control)

Cc1cccc2c1OC(C)CN2C(=O)c1cccc(-n2ncnc2C2CC2)c1 (racemic) [Compound 196]
Plant response rating, Rice (Flood) (rice): 0 | Plant response rating, Ragweed (ragweed [1]; [23]): 0 | Ragweed plant response rating (ragweed [1]; Test C, 125 g ai/ha): 0 | Plant response rating, Corn (corn [2]; [23]): 20 | Corn plant response rating (corn [2]; Test C, 125 g ai/ha): 0 | Plant response rating, Ragweed (ragweed [3]; [24]): 0 | Plant response rating, Ragweed (ragweed [3]; [25]): 0 | Plant response rating, Pigweed, Palmer (pigweed, palmer [4]; [23]): 0 | Pigweed, Palmer plant response rating (pigweed, palmer [4]; Test C, 125 g ai/ha): 0 | Plant response rating, Oat, Wild (oat, wild [5]; [24]): 0 | Plant response rating, Oat, Wild (oat, wild [5]; [25]): 0 | Plant response rating, Wheat (wheat [6]; [23]): 0 | Wheat plant response rating (wheat [6]; Test C, 125 g ai/ha): 0 | Plant response rating, Blackgrass (blackgrass [7]; [24]): 0 | Plant response rating, Blackgrass (blackgrass [7]; [25]): 0 | Plant response rating, Goosegrass (goosegrass [8]; [24]): 0 | Plant response rating, Goosegrass (goosegrass [8]; [25]): 0 | Plant response rating, Kochia (kochia [9]; [23]): 0 | Kochia plant response rating (kochia [9]; Test C, 125 g ai/ha): 0 | Plant response rating, Pigweed, Palmer (pigweed, palmer [10]; [24]): 30 | Plant response rating, Pigweed, Palmer (pigweed, palmer [10]; [25]): 0 | Plant response rating, Ryegrass, Italian (ryegrass, Italian [11]; [24]): 0 | Plant response rating, Ryegrass, Italian (ryegrass, Italian [11]; [25]): 0 | Plant response rating, Kochia (kochia [12]; [24]): 0 | Plant response rating, Kochia (kochia [12]; [25]): 0 | Plant response rating, Blackgrass (blackgrass [13]; [23]): 0 | Blackgrass plant response rating (blackgrass [13]; Test C, 125 g ai/ha): 0 | Plant response rating, Horseweed (horseweed; [24]): 0 | Plant response rating, Horseweed (horseweed; [25]): 0 | Plant response rating, Goosegrass (goosegrass [14]; [23]): 0 | Goosegrass plant response rating (goosegrass [14]; Test C, 125 g ai/ha): 0 | Plant response rating, Foxtail, Giant (foxtail, giant [15]; [24]): 0 | Plant response rating, Foxtail, Giant (foxtail, giant [15]; [25]): 0 | Plant response rating, Soybean (soybean [16]; [24]): 0 | Plant response rating, Soybean (soybean [16]; [25]): 0 | Plant response rating, Ryegrass, Italian (ryegrass, Italian [17]; [23]): 0 | Ryegrass, Italian plant response rating (ryegrass, Italian [17]; Test C, 125 g ai/ha): 0 | Plant response rating, Wheat (wheat [18]; [24]): 0 | Plant response rating, Wheat (wheat [18]; [25]): 0 | Plant response rating, Ducksalad (Flood) (ducksalad): 0 | Plant response rating, Sedge, Umbrella (Flood) (sedge, umbrella): 0 | Plant response rating, Oat, Wild (oat, wild [19]; [23]): 0 | Oat, Wild plant response rating (oat, wild [19]; Test C, 125 g ai/ha): 0 | Plant response rating, Corn (corn [20]; [24]): 0 | Plant response rating, Corn (corn [20]; [25]): 0 | Plant response rating, Barnyardgrass (Flood) (barnyardgrass): 0 | Plant response rating, Galium (galium; [24]): 0 | Plant response rating, Galium (galium; [25]): 0 | Plant response rating, Foxtail, Giant (foxtail, giant [21]; [23]): 0 | Foxtail, Giant plant response rating (foxtail, giant [21]; Test C, 125 g ai/ha): 0 | Plant response rating, Soybean (soybean [22]; [23]): 0 | Soybean plant response rating (soybean [22]; Test C, 125 g ai/ha): 0

Cc1cccc2c1O[C@@H](C)CN2C(=O)c1cccc(-n2cnc(C#C[Si](C)(C)C)n2)c1 [Compound 284]
Plant response rating, Rice (Flood) (rice): 0 | Ragweed plant response rating (ragweed [1]; 500 g ai/ha): 0 | Ragweed plant response rating (ragweed [1]; Test C, 125 g ai/ha): 0 | Corn plant response rating (corn [2]; 500 g ai/ha): 0 | Corn plant response rating (corn [2]; Test C, 125 g ai/ha): 0 | Plant response rating, Ragweed (ragweed [3]; [24]): 0 | Plant response rating, Ragweed (ragweed [3]; [26]): 0 | Pigweed, Palmer plant response rating (pigweed, palmer [4]; 500 g ai/ha): 0 | Pigweed, Palmer plant response rating (pigweed, palmer [4]; Test C, 125 g ai/ha): 0 | Plant response rating, Oat, Wild (oat, wild [5]; [24]): 10 | Plant response rating, Oat, Wild (oat, wild [5]; [26]): 10 | Wheat plant response rating (wheat [6]; 500 g ai/ha): 10 | Wheat plant response rating (wheat [6]; Test C, 125 g ai/ha): 0 | Plant response rating, Blackgrass (blackgrass [7]; [24]): 0 | Plant response rating, Blackgrass (blackgrass [7]; [26]): 40 | Plant response rating, Goosegrass (goosegrass [8]; [24]): 10 | Plant response rating, Goosegrass (goosegrass [8]; [26]): 30 | Kochia plant response rating (kochia [9]; 500 g ai/ha): 10 | Kochia plant response rating (kochia [9]; Test C, 125 g ai/ha): 0 | Plant response rating, Pigweed, Palmer (pigweed, palmer [10]; [24]): 40 | Plant response rating, Pigweed, Palmer (pigweed, palmer [10]; [26]): 60 | Plant response rating, Ryegrass, Italian (ryegrass, Italian [11]; [24]): 0 | Plant response rating, Ryegrass, Italian (ryegrass, Italian [11]; [26]): 0 | Plant response rating, Kochia (kochia [12]; [24]): 10 | Plant response rating, Kochia (kochia [12]; [26]): 50 | Blackgrass plant response rating (blackgrass [13]; 500 g ai/ha): 60 | Blackgrass plant response rating (blackgrass [13]; Test C, 125 g ai/ha): 0 | Plant response rating, Horseweed (horseweed; [24]): 0 | Plant response rating, Horseweed (horseweed; [26]): 50 | Goosegrass plant response rating (goosegrass [14]; 500 g ai/ha): 90 | Goosegrass plant response rating (goosegrass [14]; Test C, 125 g ai/ha): 10 | Plant response rating, Foxtail, Giant (foxtail, giant [15]; [24]): 10 | Plant response rating, Foxtail, Giant (foxtail, giant [15]; [26]): 20 | Plant response rating, Soybean (soybean [16]; [24]): 20 | Plant response rating, Soybean (soybean [16]; [26]): 30 | Ryegrass, Italian plant response rating (ryegrass, Italian [17]; 500 g ai/ha): 90 | Ryegrass, Italian plant response rating (ryegrass, Italian [17]; Test C, 125 g ai/ha): 50 | Plant response rating, Wheat (wheat [18]; [24]): 10 | Plant response rating, Wheat (wheat [18]; [26]): 10 | Plant response rating, Ducksalad (Flood) (ducksalad): 65 | Plant response rating, Sedge, Umbrella (Flood) (sedge, umbrella): 0 | Oat, Wild plant response rating (oat, wild [19]; 500 g ai/ha): 70 | Oat, Wild plant response rating (oat, wild [19]; Test C, 125 g ai/ha): 20 | Plant response rating, Corn (corn [20]; [24]): 0 | Plant response rating, Corn (corn [20]; [26]): 10 | Plant response rating, Barnyardgrass (Flood) (barnyardgrass): 0 | Plant response rating, Galium (galium; [24]): 70 | Plant response rating, Galium (galium; [26]): 90 | Foxtail, Giant plant response rating (foxtail, giant [21]; 500 g ai/ha): 90 | Foxtail, Giant plant response rating (foxtail, giant [21]; Test C, 125 g ai/ha): 0 | Soybean plant response rating (soybean [22]; 500 g ai/ha): 0 | Soybean plant response rating (soybean [22]; Test C, 125 g ai/ha): 0
